Legend:
[1] = Clinical pharmacokinetics after oral administration; assay type: in vivo, human
[2] = test system: CYP1A2; assay: Mechanistic static DDI risk assessment with in vitro data: CYP1A2 induction; assay type: in vitro ADME; conditions: at the recommended dosage
[3] = test system: pregnant rabbits; assay: Embryo-fetal development study in rabbits; assay type: in vivo
[4] = test system: adult patients with R/R AML harboring an IDH1 R132 mutation; assay: Study 2102-HEM-101 pivotal cohort: efficacy; assay type: in vivo, human
[5] = test system: CYP2C19; assay: Hepatocyte induction study: CYP2C19; assay type: in vitro ADME
[6] = test system: cynomolgus monkeys; conditions: cynomolgus monkey, in vivo
[7] = test system: mutated IDH1; assay: Nonclinical pharmacology: inhibition of mutated IDH1; assay type: biochemical
[8] = test system: mutated IDH2 proteins; assay: Nonclinical pharmacology: inhibition of mutated IDH2; assay type: biochemical
[9] = test system: rats; assay type: in vivo; conditions: after 48 hours of exposure to UV light
[10] = target: cytochrome P450 (CYP)3A4 (Homo sapiens, UniProt P08684); assay: Metabolism by cytochrome P450 enzymes; assay type: in vitro ADME; conditions: minor contributions from CYP2C8, CYP2C9, CYP1A2, CYP2C19
[11] = test system: cell lines expressing mutated IDH1 proteins (R132H, R132L, R132S, R132G, and R132C); assay: 2-HG production in cell lines expressing mutated IDH1 proteins; assay type: cell-based; conditions: read-out: IC50 for suppression of 2-HG production
[12] = Clinical drug-drug interaction with rifampin or itraconazole; assay type: in vivo
[13] = test system: 2-HG plasma concentrations; assay: PK/PD analysis of 2-HG plasma concentrations in patients with AML; assay type: in vivo, human; conditions: 150 mg BID, by the end of the first cycle; %CV 122%
[14] = target: wild type IDH1 (Homo sapiens, UniProt O75874); assay: Nonclinical pharmacology: inhibition of wild type IDH1; assay type: biochemical
[15] = test system: CYP3A4; assay: Mechanistic static DDI risk assessment with in vitro data: CYP3A4 induction; assay type: in vitro ADME; conditions: at the recommended dosage
[16] = Food effect study in healthy subjects; assay type: in vivo, human; conditions: single 150 mg dose
[17] = test system: patients with R/R AML; assay: Study 2102-HEM-101 pivotal cohort: safety
[18] = QTc interval assessment in patients; assay type: in vivo, human; conditions: elevated exposures under fed condition
[19] = test system: CYP2C9; assay: Mechanistic static DDI risk assessment with in vitro data: CYP2C9 induction; assay type: in vitro ADME; conditions: at the recommended dosage
[20] = test system: CYP2B6; assay: Mechanistic static DDI risk assessment with in vitro data: CYP2B6 induction; assay type: in vitro ADME; conditions: at the recommended dosage
[21] = test system: primary human AML cells; assay: Treatment of primary human AML cells; assay type: cell-based
[22] = test system: rats; conditions: rat, in vivo
[23] = test system: OATP1B1; assay: Mechanistic static DDI risk assessment with in vitro data: OATP1B1 inhibition; assay type: in vitro ADME; conditions: at the recommended dosage
[24] = test system: CYP2C8; assay: Mechanistic static DDI risk assessment with in vitro data: CYP2C8 induction; assay type: in vitro ADME; conditions: at the recommended dosage
[25] = test system: patients with R/R AML; conditions: in vivo
[26] = test system: adult patients with R/R AML or myelodysplastic syndrome (MDS) harboring an IDH1 R132 mutation; assay: Study 2102-HEM-101 dose escalation/expansion portion
[27] = in vivo
[28] = test system: pregnant rats; assay: Embryo-fetal development study in rats; assay type: in vivo
[29] = concomitant multiple doses of rifampin, a strong CYP3A inducer

cytochrome P450 (CYP)3A4, sequence (P08684 whole entry): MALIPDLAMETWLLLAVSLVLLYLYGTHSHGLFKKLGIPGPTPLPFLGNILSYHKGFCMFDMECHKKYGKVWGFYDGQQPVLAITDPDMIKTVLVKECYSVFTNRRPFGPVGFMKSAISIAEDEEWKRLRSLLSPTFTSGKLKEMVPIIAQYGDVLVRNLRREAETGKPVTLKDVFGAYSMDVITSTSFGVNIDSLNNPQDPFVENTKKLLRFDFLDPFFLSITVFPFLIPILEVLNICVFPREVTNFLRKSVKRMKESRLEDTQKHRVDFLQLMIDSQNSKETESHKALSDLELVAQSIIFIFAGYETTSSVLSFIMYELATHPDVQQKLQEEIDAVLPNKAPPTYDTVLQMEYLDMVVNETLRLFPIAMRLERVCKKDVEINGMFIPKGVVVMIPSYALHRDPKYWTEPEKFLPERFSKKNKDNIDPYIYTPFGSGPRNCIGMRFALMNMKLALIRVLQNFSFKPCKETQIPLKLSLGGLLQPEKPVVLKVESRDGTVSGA
wild type IDH1, sequence (O75874 whole entry): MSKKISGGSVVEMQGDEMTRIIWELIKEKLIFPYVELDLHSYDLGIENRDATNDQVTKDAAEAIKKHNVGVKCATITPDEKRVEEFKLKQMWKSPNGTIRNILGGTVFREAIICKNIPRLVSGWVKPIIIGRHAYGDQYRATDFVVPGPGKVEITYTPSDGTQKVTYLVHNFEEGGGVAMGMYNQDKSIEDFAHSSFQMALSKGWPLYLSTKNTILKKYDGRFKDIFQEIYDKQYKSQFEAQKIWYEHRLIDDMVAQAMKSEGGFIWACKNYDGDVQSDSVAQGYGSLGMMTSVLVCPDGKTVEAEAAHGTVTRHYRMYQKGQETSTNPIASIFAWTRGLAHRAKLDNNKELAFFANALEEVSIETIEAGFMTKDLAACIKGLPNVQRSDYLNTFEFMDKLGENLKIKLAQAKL

## C[C@H](Nc1ccc(C#N)n(C)c1=O)c1cc2cc(Cl)ccc2[nH]c1=O [Olutasidenib, olutasidenib]
[1]; dose range of 100 to 300 mg
  dose proportionality of Cmax and AUC: increased less than proportionally
[1]; human, in vivo
  time to steady-state plasma levels: ≤ 14 days
[1]; human, plasma, po
  half-life: ~67 h
[1]; oral administration
  time to maximum plasma concentration (Cmax): approximately 4 hours
[2]
  CYP1A2 induction potential: may induce
[3]
  embryo-fetal development findings: embryo-fetal death and altered fetal growth
[4]; 150 mg BID, 147 efficacy-evaluable patients, 95% CI 27-43%
  CR + CRh rate: 35%
[4]; 150mg BID, N=147
  CR + CRh, n (%): 51 (35) n (%)
  CR, n (%): 47 (32) n (%)
  Median DOCR: 28.1 months
  Median DOCRh: 3.6 months
[4]; 150 mg BID, N=147, 95% CI 13.5, NR
  median duration of CR + CRh (DOCR + CRh, duration of response): 25.9 months
[4]; 29 of 86 patients TD at baseline
  conversion from transfusion dependence (TD) to transfusion independence (TI): 34%
[4]; 39/61 patients
  maintenance of TI in patients TI at baseline: 64%
[4]; 41 out of 123 efficacy evaluable subjects, 95% CI 25.1%-42.4%
  CR + CRh rate at interim analysis for efficacy: 33%
[4]; sixteen of 147 patients
  patients able to proceed to allogeneic stem cell transplantation after treatment: 11%
[5]
  potential to induce CYP2C19: cannot be ruled out
[6]
  general toxicology findings: altered glucose and lipid metabolism, inflammation, and the GI tract, liver, kidney, and cardiovascular system as the main organs of toxicity
[7]
  inhibitory activity against mutated IDH1: inhibited
[8]
  inhibitory activity against mutated IDH2 proteins: little or no inhibitory activity
[9]
  phototoxicity finding: erythema in the skin
[10]
  share of metabolism by CYP3A4: 90%
[11]
  IC50: 0.008 to 0.116 µM
[12]; concomitant multiple doses of itraconazole, a strong CYP3A and P-gp inhibitor
  differences in PK with itraconazole: No clinically significant differences
[12]; [29]
  decrease of AUC with rifampin: 80%
  decrease of Cmax with rifampin: 43%
[13]
  mean reduction of 2-HG plasma concentration: 59.1%
[14]
  inhibitory activity against wild type IDH1: little or no inhibitory activity
[15]
  CYP3A4 induction potential: may induce
[16]; CV% 18.3%
  mean increase of AUCinf with a high-fat meal: 83%
[16]; CV% 20.6%
  mean increase of Cmax with a high-fat meal: 191%
[17]; 2 deaths, of on treatment deaths
  deaths due to complications from DS: 4%
[17]; 13 patients
  30-day mortality: 8%
[17]; 45 deaths
  deaths on treatment (on or within 28 days of the last dose): 29%
[17]; 101 of 153 patients
  total deaths: 66%
[17]; thirty-seven of 45 on treatment deaths
  on treatment deaths due to underlying AML or complications from AML: 82%
[18]
  QT prolongation expected under a fed condition: ≤ 30 ms
[19]
  CYP2C9 induction potential: may induce
[20]
  CYP2B6 induction potential: may induce
[21]
  2-HG production: suppressed 2-HG production
  cell differentiation: induced granulocytic/monocytic cell differentiation
  cell proliferation: increased cell proliferation
[22]
  general toxicology findings: altered glucose and lipid metabolism, inflammation, and the GI tract, liver, kidney, and cardiovascular system as the main organs of toxicity
[23]
  OATP1B1 inhibition potential: inhibit
[24]
  CYP2C8 induction potential: may induce
[25]; human
  Abdominal Pain, Any Grade: 28 (18)
  Abdominal Pain, Grade ≥3: 1 (1)
  Arthralgia, Any Grade: 43 (28)
  Arthralgia, Grade ≥3: 4 (3)
  Constipation, Any Grade: 39 (26)
  Constipation, Grade ≥3: 0
  Cough, Any Grade: 26 (17)
  Cough, Grade ≥3: 1 (1)
  Diarrhea, Any Grade: 31 (20)
  Diarrhea, Grade ≥3: 2 (1)
  Differentiation Syndrome, Any Grade: 25 (16)
  Differentiation Syndrome, Grade ≥3: 13 (8)
  Dyspnea, Any Grade: 37 (24)
  Dyspnea, Grade ≥3: 4 (3)
  Edema, Any Grade: 27 (18)
  Edema, Grade ≥3: 4 (3)
  Fatigue/Malaise, Any Grade: 55 (36)
  Fatigue/Malaise, Grade ≥3: 2 (1)
  Grade 3 or higher adverse reaction: dyspnea: 5%
  Grade 3 or higher adverse reaction: hypertension: 5%
  Grade 3 or higher adverse reaction: leukocytosis: 9%
  Grade 3 or higher adverse reaction: transaminitis: 12%
  Grade 3 or higher differentiation syndrome: 8%
  Headache, Any Grade: 19 (13)
  Headache, Grade ≥3: 0
  Hypertension, Any Grade: 16 (10)
  Hypertension, Grade ≥3: 7 (5)
  Leukocytosis, Any Grade: 38 (25)
  Leukocytosis, Grade ≥3: 14 (9)
  Mucositis, Any Grade: 35 (23)
  Mucositis, Grade ≥3: 5 (3)
  Nausea, Any Grade: 57 (38)
  Nausea, Grade ≥3: 0
  Pyrexia, Any Grade: 36 (24)
  Pyrexia, Grade ≥3: 1 (1)
  QTc prolongation TEAE, Grade 3 or higher: 1%
  QTc prolongation TEAE, any grade: 8%
  Rash, Any Grade: 36 (24)
  Rash, Grade ≥3: 2 (1)
  Transaminitis, Any Grade: 31 (20)
  Transaminitis, Grade ≥3: 18 (12)
  Vomiting, Any Grade: 25 (16)
  Vomiting, Grade ≥3: 1 (1)
  differentiation syndrome (DS), all grades: 16%
  dose reductions due to adverse reactions: 11%
  median time to onset of DS: 14 days
  median time to onset of transaminitis: 1.2 months
  median time to resolution of transaminitis: 12 days
  patients who discontinued therapy due to an AR: 8%
  patients with DS who had olutasidenib held: 44%
  patients with DS who recovered after treatment or dosage interruption: 76%
  patients with a Grade 3 or 4 TEAE: 84%
  patients with a Grade 3 or 4 hepatotoxicity TEAE: 13%
  patients with dose held due to QTc prolongation: 1%
  patients with therapy discontinued due to a hepatobiliary AR: 5%
  patients with therapy reduced due to a hepatobiliary AR: 6%
  patients with treatment interrupted due to an AR: 32%
  rate of ALT elevation: 46%
  rate of AST elevation: 47%
  treatment discontinuation due to DS: 3%
  treatment discontinuation due to gallbladder disorders: 1%
  treatment discontinuation due to transaminitis: 3%
  treatment interruption due to DS: 7%
  treatment interruption due to transaminitis: 10%
[25]
  Hy's Law cases: no confirmed Hy’s Law cases
  patients with dose reduced or discontinued due to QTc prolongation: no patients
[26]; 150mg BID, dose escalation/expansion portion, 5/13 patients
  patients with CR, CRh or CRi (preliminary efficacy): 38%
[26]; dose escalation
  dose-limiting toxicities: no dose-limiting toxicities observed
[27]
  tissue distribution: binding of olutasidenib to melanin-containing tissues
[28]
  embryo-fetal development findings: embryo-fetal death and altered fetal growth

— article PMC11703669 (Clinical cancer research : an official journal of the …, 2025)
